Reference: patent US11241455B2, “Methods of treating disease by metabolic control of T-cell differentiation” (The J. David Gladstone Institutes, a testamentary trust …, priority 2016, dated 2022)

Columns and labels:
[1] = system: EAE induced in C57BL/6 mice; experiment: Mouse experimental autoimmune encephalitis (EAE) model; type: in vivo
Protocol: EAE was induced by immunizing mice (12 weeks old, 11-12 mice/group) twice with 300 μg of MOG35-55 peptide (amino acids 35-55; MEVGWYRSPFSROVHLYRNGK (SEQ ID NO: 2)) emulsified in complete Freund's adjuvant, followed by pertussis toxin injection and analyzed. The disease scores were assigned on a scale of 0-5 as follows: 0, none; 1, limp tail or waddling gait with tail tonicity; 2, wobbly gait; 3, hind limb paralysis; 4, hind limb and forelimb paralysis; 5, death. When the disease phenotype was very obvious (average score>1), PBS or (aminooxy)-acetic acid (AOA) (750 μg/mice) was intraperitoneal (i.p.) injected every day. After 8 days of administration of AOA or PBS, the mice were anesthetized, and cells infiltrated into brain and spinal cord were collected for analysis. When indicated, the statistical significance was determined by Student's t test (*, p<0.05; **, p<0.01; ***, p<0.001). All animal work was approved by the Institutional Animal Care and Use Committee (IACUC).
The in vitro findings that AOA regulates the TH17/iTreg balance prompted an investigation into the effects of AOA in vivo in the context of a pathologic TH17-dependent disease state. TH17 cells are the major pathogenic cell population in experimental autoimmune encephalomyelitis (EAE), a mouse model of multiple sclerosis, but FOXP3+regulatory T cells suppress TH17 cell-mediated inflammatory diseases, such as EAE. In the in vitro studies, AOA skewed TH17 differentiation towards FOXP3+ iTreg cells and, therefore, offers a potential to treat TH17-mediated autoimmune diseases. To test this possibility, EAE was induced in C57BL/6 mice by immunizing with myelin oligodendrocyte glycoprotein peptide (MOG35-55) in complete Freund's adjuvant (CFA) as described. AOA or control vehicle was injected daily intraperitoneally after a majority of the mice began to show obvious neurological signs, including tail paralysis that progressed to hind and front limb paralysis (disease score>1). […] The ratio of FOXP3+ cells to IL17+ cells is much higher in AOA-treated mice than in control mice (FIG. 4c).

[2] = system: differentiating TH17 cells; experiment: TH17 differentiation of CD4 naïve T cells (IL17F-RFP/FOXP3-GFP reporter or intracellular staining of IL-17 and FOXP3); type: cell-based, mouse; conditions: compound added after 24 hours of TH17 differentiation, analyzed on day 6
Protocol: CD4 naïve T cells (CD4+CD25-CD62^highCD44^low) were obtained from interleukin (IL)-17F-red fluorescent protein (RFP)/FOXP3-green fluorescent protein (GFP) mice, which were characterized previously, or wild-type C57/BL6 mice, by cell sorting. 0.4 million cells were plated into 48 wells coated with anti-mouse CD3 (clone 145-2C11, eBioscience) […] and anti-mouse CD28 (clone 37.51, eBioscience) (1 μg/ml). The differentiation media for these naïve T cells was as follows: 0.5 ng/ml (or indicated) transforming growth factor (TGF) β, 200 U/ml mouse IL-2, 2 μg/ml anti-interferon (IFN) γ and 2 μg/ml anti-mouse IL4 for differentiation into iTreg cells; and 2.5 ng/ml TGFβ, 10 ng/ml mouse IL-1β, 10 ng/ml mouse IL-6, 10 ng/ml mouse IL-23, 2 μg/ml anti-mouse IFNγ, and anti-mouse IL-4 for differentiating into TH17 cells. The cells were supplemented with new medium at day 4. In cases in which small-molecule compounds were present, the fresh medium containing the same concentration of compounds was used. When necessary, the individual metabolite was added into the T-cell culture 6 hours later after initial cell plating. On day 6, the cells were analyzed for IL17F-RFP and FOXP3-GFP or the cells were collected and restimulated for 4-6 hours with PMA, inomycin, and Golgi-stop for intracellular staining in absence of indicated compounds.
To identify small molecules that regulate cell-fate switching of TH17/iTreg cells and to further understand the regulation of the TH17/iTreg balance, 10,000 individual small molecules were phenotypically screened using CD4 naïve T cells from IL-17F-RFP/FOXP3-GFP mice. The naïve T cells were cultured under optimal TH17 differentiation conditions and compounds that could reprogram TH17 differentiation toward iTreg cell fate were identified using the reporter readout. Briefly, after TH17 differentiation for 24 hours, compounds were added to TH17 culture, and the treatment was continued for an additional 5 days before the cells were analyzed for IL17F-RFP and FOXP3-GFP expression by high-throughput fluorescence-activated cell sorting (FACS) (FIG. 5a). […] This effect of reprogrammed differentiation was further confirmed by intracellular immunostaining of IL-17 and FOXP3 (FIG. 1a).

[3] = system: differentiating iTreg cells; experiment: Intracellular metabolite profiling by LC/MS in differentiating iTreg cells; type: cell-based, mouse; conditions: day 2.5, 0.5 mM AOA
Protocol: CD4 naïve T cells, differentiating TH17 cells (day 2.5), and differentiating iTreg cells (day 2.5) were obtained as described above. A solution of 80/20 methanol (MeOH)/H2O was used to extract intracellular metabolites. The extracted samples were analyzed with liquid chromatography (LC)/mass spectrometry (MS) metabolomics. 200 ng/mL of extraction standard (L-Glutamic acid-^13C5-^15N-d5) was added into samples, and the peak value for each metabolite was normalized to extraction standard. The data was transformed into Log 2 and clustered. Cell extracts obtained as described above were analyzed for relative abundance of ^13C and ^15N metabolites by liquid chromatography-triple quadrupole mass spectrometry (LC-MS) using scheduled selective reaction monitoring (SRM) for each metabolite of interest, with the detector set to negative mode. Quantitation of intracellular 2-hydroxyglutarate (2HG) was conducted as described previously (Kernesky et al., Blood 2015, 125(2) 296-303).

[4] = system: differentiating iTreg cells; experiment: U-13C glutamine flux analysis in differentiating iTreg cells; type: cell-based, mouse; conditions: 2 mM U-13C-glutamine for 4 hours
Protocol: CD4 naïve T cells, differentiating TH17 or iTreg cells (68 hours) were incubated with fresh media prior to labeling. The cells were then cultured for 4 hours at 37° C. with medium where the glutamine was replaced with the corresponding stable isotope label: 2 mM U-^13C glutamine or 2 mM ^15N-α-glutamine for 4 hours at 37° C. The cells were quickly collected and quickly washed with phosphate buffer saline (PBS), pelleted, and snap frozen in liquid nitrogen. The frozen samples were kept in −80° C. until extraction. Cell extracts were prepared by first adding 80/20 MeOH/H2O at −60° C. to the frozen pellets and collecting the supernatant after centrifugation at 4° C. The extracted samples were analyzed by high-resolution liquid-chromatography-mass spectrometry. Unlabeled glutamine-fed cells were used as background. For negative mode metabolomics: Cell extracts obtained as described above were analyzed for relative abundance of metabolites by liquid chromatography-triple quadrupole mass spectrometry (LC-MS) using scheduled selective reaction monitoring (SRM) for each metabolite of interest, with the detector set to negative mode. Prior to injection, dried extracts were reconstituted in LC-MS grade water. LC separation was achieved by reverse-phase ion-pairing chromatography.

[5] = brain and spinal cord infiltrated T cells after 8 days of AOA 750 μg/mice i.p. daily, p<0.01

SMILES: NOCC(=O)O [AOA, (aminooxy)-acetic acid]
- recovery from EAE diseases (disease scores, scale of 0-5) ([1]; 750 μg/mice i.p. every day, started when average score>1, versus PBS): significant recovery from EAE diseases
- ratio of FOXP3+ cells to IL17+ cells ([1]; AOA-treated mice versus control mice, CNS infiltrated T cells): much higher
- percentage of FOXP3+ T cells in the central nervous system [1, 5]: increased
- percentage of TH17 cells in the central nervous system [1, 5]: significantly reduced
- reprogramming of TH17 induction to iTreg cells (IL17F-expressing and FOXP3-expressing cells) [2]: reprogram TH17 induction to iTreg cells in a dose-dependent manner
- abundance of TCA cycle intermediates (α-KG, succinate, fumarate, malate, citrate) [3]: reduced partially
- level of glutamate [3]: slightly higher
- reduction of steady-state levels of 2-HG [3]: 50%
- de novo synthesis of α-KG and 2-HG (U-13C labeled, normalized to U-13C-glutamine) [4]: inhibited
